# From patent US6589989B1, “Treatment of cell-mediated immune diseases” (Basilea Pharmaceutica AG, priority 1997, dated 2003)
# Values joined by “and” are separate entries in the source; they are usually repeats but may differ in a detail not shown here. Identical values can stand only once.
# Tests used:
# chronic hand eczema = assay: Once daily oral 9-cis retinoic acid in patients with chronic hand eczema refractory to conventional treatment
# Procedure: Fifteen patients, eight men and seven women, with chronic hand eczema, refractory to conventional treatment, were treated with 9-cis retinoic acid. Their mean age was 52.3 years, range 21-83. Before the start of 9-cis retinoic acid therapy, their eczema had already lasted for 3 months to 8 years, with a mean of 29 months. […] Therapy consisted in a once daily oral dose of 40 mg 9-cis retinoic acid, given in the form of two soft gelatin capsules containing 20 mg of 9-cis retinoic acid each, with breakfast. 8 patients received in the first week only 20 mg. Mean duration of treatment was 2 months, range 1-3 months. The following lesions and symptoms were recorded on a 0-4 scale (0=none, 1=mild, 2=moderate and 4=severe) and used for evaluating the therapeutic effect: Erythema, papules and vesicles, desquamation, hyperkeratosis, rhagades and pruritus/pain. Side effects, particularly those belonging to the hypervitaminosis A syndrome, were recorded: Headache, dry lips, other mucocutaneous manifestations, muscoskeletal symptoms and laboratory abnormalities.
# [1] = higher doses; Kurie et al. 1996, Miller et al. 1996; cited from earlier work
# [2] = test system: malignant skin diseases and solid tumors of other organs; assay: High oral daily doses of 9-cis retinoic acid in malignant skin diseases and solid tumors; format: in vivo; settings: high oral daily doses of up to 300 mg
# [3] = test system: non-malignant skin-disorders, such as acne, psoriasis, lamellar ichthyosis, Darier's disease and lichen planus; settings: low daily doses of 20 to 60 mg
# [4] = test system: T-helper cell type 1 mediated immune diseases; assay: Low oral daily doses of 9-cis retinoic acid in T-helper cell type 1 mediated immune diseases
# [5] = 0-4 scale, individual patient, after 40 mg oral daily for 1-3 months
# [6] = 0-4 scale, individual patient, before 40 mg oral daily
# [7] = for all 15 patients, 40 mg daily oral
# [8] = for the 14 responding patients, 40 mg daily oral
# [9] = for the 14 responding patients, 40 mg daily oral, listed as 9-cis retinoic acid
# [10] = individual patient, 40 mg oral daily for 1-3 months
structure (smiles),measurement,setting,value
"CC1=C(/C=C/C(C)=C\C=C\C(C)=C\C(=O)O)C(C)(C)CCC1 [9-cis RA, 9-cis retinoic acid]","Desquamation, after treatment",chronic hand eczema; [5],1 (5×) and 0 (6×) and 3/3 and 0/0 (2×) and 0.5
same,"Erythema, after treatment",chronic hand eczema; [5],0 (9×) and 0.5 (2×) and 2 and 0/0 and 2/2 and 1
same,"Hyperkeratosis, after treatment",chronic hand eczema; [5],0 (8×) and 1/1 (2×) and 1 (2×) and 3/3 and 0.5 (2×)
same,"Papules, vesicles, after treatment",chronic hand eczema; [5],0 (4×) and 1 (4×) and 0/0 (6×) and 0.5
same,"Pruritus (+ pain), after treatment",chronic hand eczema; [5],0 (6×) and 1 (4×) and 2 (2×) and 7/7 and 0.5 (2×)
same,"Rhagades, after treatment",chronic hand eczema; [5],0 (12×) and 2 and 2/2 and 1
same,"Desquamation, before treatment",chronic hand eczema; [6],2 (4×) and 3 (4×) and 1 (4×) and 3/3 and 0/0 (2×)
same,"Erythema, before treatment",chronic hand eczema; [6],1 (8×) and 2 (4×) and 4 and 0/0 and 2/2
same,"Hyperkeratosis, before treatment",chronic hand eczema; [6],4 and 3 and 1/1 (2×) and 2 (8×) and 1 (2×) and 3/3
same,"Papules, vesicles, before treatment",chronic hand eczema; [6],3 (3×) and 2 (3×) and 1 (3×) and 0/0 (6×)
same,"Pruritus (+ pain), before treatment",chronic hand eczema; [6],2 (3×) and 3 (4×) and 4 (3×) and 5 (4×) and 7/7
same,"Rhagades, before treatment",chronic hand eczema; [6],3 (3×) and 2 (5×) and 1 (5×) and 0.5 and 2/2
same,"Regression of the various lesions and symptoms (erythema, papules and vesicles etc.)",chronic hand eczema; 40 mg daily oral,62-100%
same,Musculoskeletal or other symptoms,"chronic hand eczema; 40 mg daily, 15 patients",no musculoskeletal or other symptoms were observed
same,Overall response of the patients,"chronic hand eczema; all fifteen patients, 40 mg daily",responded markedly
same,"Reduction of Lesion/symptom score, in %, mean",chronic hand eczema; [7],76.3%
same,"Reduction of Lesion/symptom score, in %, range",chronic hand eczema; [7],0-100%
same,"Reduction of Lesion/symptom score, in %, mean",chronic hand eczema; [8],mean 81.8%
same,"Reduction of Lesion/symptom score, in %, range",chronic hand eczema; [8],"for the 14 responding patients 53-100, %"
same,"Reduction of Lesion/symptom score, in %, mean",chronic hand eczema; [9],81.3%
same,"Reduction of Lesion/symptom score, in %, range",chronic hand eczema; [9],53-100%
same,Response assessed by doctor,chronic hand eczema; [10],very good (6×) and good (7×) and no and moderate
same,Response assessed by patient,chronic hand eczema; [10],very good (10×) and good (3×) and moderate and no
same,"Patients with response good, assessment by doctor, number",chronic hand eczema; of 15 patients,7
same,"Patients with response good, assessment by doctor, percent",chronic hand eczema; of 15 patients,(47%)
same,"Patients with response good, assessment by patient, number",chronic hand eczema; of 15 patients,3
same,"Patients with response good, assessment by patient, percent",chronic hand eczema; of 15 patients,(20%)
same,"Patients with response moderate, assessment by doctor, number",chronic hand eczema; of 15 patients,1
same,"Patients with response moderate, assessment by doctor, percent",chronic hand eczema; of 15 patients,(6.5%)
same,"Patients with response moderate, assessment by patient, number",chronic hand eczema; of 15 patients,1
same,"Patients with response moderate, assessment by patient, percent",chronic hand eczema; of 15 patients,(6.5%)
same,"Patients with response no, assessment by doctor, number",chronic hand eczema; of 15 patients,1
same,"Patients with response no, assessment by doctor, percent",chronic hand eczema; of 15 patients,(6.5%)
same,"Patients with response no, assessment by patient, number",chronic hand eczema; of 15 patients,1
same,"Patients with response no, assessment by patient, percent",chronic hand eczema; of 15 patients,(6.5%)
same,"Patients with response slight, assessment by doctor, number",chronic hand eczema; of 15 patients,0
same,"Patients with response slight, assessment by doctor, percent",chronic hand eczema; of 15 patients,(0%)
same,"Patients with response slight, assessment by patient, number",chronic hand eczema; of 15 patients,0
same,"Patients with response slight, assessment by patient, percent",chronic hand eczema; of 15 patients,(0%)
same,"Patients with response very good, assessment by doctor, number",chronic hand eczema; of 15 patients,6
same,"Patients with response very good, assessment by doctor, percent",chronic hand eczema; of 15 patients,(40%)
same,"Patients with response very good, assessment by patient, number",chronic hand eczema; of 15 patients,10
same,"Patients with response very good, assessment by patient, percent",chronic hand eczema; of 15 patients,(67%)
same,"Response considered very good or good (doctor and patient), number of patients",chronic hand eczema; of 15 patients,13
same,"Response considered very good or good (doctor and patient), percent of patients",chronic hand eczema; of 15 patients,87%
same,"Total Score (0-4 scale), after treatment","chronic hand eczema; sum of lesion/symptom scores, individual patient, after 40 mg oral daily for 1-3 months",1 (3×) and 2 (4×) and 4.5 (2×) and 3 and 0 (3×) and 8 and 17/17
same,"Total Score (0-4 scale), before treatment","chronic hand eczema; sum of lesion/symptom scores, individual patient, before 40 mg oral daily",15 and 14 (2×) and 11 (4×) and 10 (2×) and 17 and 9 (2×) and 17/17 and 13 and 8
same,Reduction of score in %,"chronic hand eczema; total score, individual patient, 40 mg oral daily for 1-3 months",93% and 86% and 59% and 61% and 74% and 100% (3×) and 53% and 89% (2×) and 0% and 85% and 82% and 75%
same,"Other mucocutaneous manifestations, musculoskeletal or other symptoms",[1],seen with higher doses
same,Objective tumor regressions,[2],did not lead to major objective tumor regressions
same,Side effects,[2],marked to severe side effects
same,Therapeutic effect on non-malignant skin-disorders,[3],no therapeutic effect
same,"Other toxic signs and symptoms of the hypervitaminosis A syndrome, including the laboratory abnormalities","[4]; daily doses typically 20 to 60 mg, oral",not induced
same,Efficacy in treatment of T-helper cell type 1 mediated immune diseases,[4]; low daily doses of 20 to 60 mg,efficacious
